Assay results as given in patent US6235791A, “Use of amines to produce drugs for preventing tumor cell proliferation” (Sanofi-Synthelabo, priority 1996, dated 2001).

Key:
[1] = test system: SN 47 p4 normal cells; test: proliferation of mammary epithelial cells, IC50 after 6 days; format: cell-based; conditions: Epithelial cell, 144 h, 6 days of treatment
Description: (§1) Another study was also performed in order to determine the effect of SR 31747 on the in vitro and in vivo growth of mammary and prostate epithelial tumour cells.
(§2) The study consisted in evaluating the potential antitumour activity of SR 31747 on the growth of a variety of cancerous breast epithelial lines. The study is carried out in vitro on cell cultures, as well as in vivo after inoculation of tumoral mammary lines in "nude" athymic mice.
(§3) Table B--Effect of SR 31747 on the proliferation of mammary epithelial cells. Determination of the IC50 after 6 days of treatment--medium changed every 48 hours

[2] = test system: 293; test: MTT colorimetric proliferation test, 5 days; format: cell-based; conditions: Homo sapiens, read-out: percentage of cell proliferation relative to the untreated control taken as 100%
Description: (§4) Among other cells used, the following lines were routinely cultured in RPMI medium supplemented with 10% foetal calf serum (FCS):
human kidney carcinoma 294
(§5) The antitumour activity is measured according to the colorimetry method using MTT, 3-(4,5-dimethylthiazole-2,5-diphenyltetrazolium) bromide as described by Mosmann T., Journ. of Im. Methods; 1983, 65, 55.
(§6) This colorimetric assay makes it possible to measure quantitatively the antitumour activity of a solution containing a compound used according to the invention.
(§7) According to the procedure used, the suspended cells (such as the myeloma cells) are inoculated at 2×10^3 cells/ml in 1 ml wells in defined medium. The adherent cells (such as the MCF-7 cells) are inoculated at 5×10^4 cells/ml in 1 ml wells in RPMI medium+0.5% FCS overnight. The next day, the cell carpet is washed twice and replaced by the defined medium.
(§8) The defined medium corresponds to: RPMI+10 μg/ml insulin+10 μg/ml human transferrin.
(§9) In order to carry out this test, cells are maintained in the presence of the solution containing a compound used according to the invention for 5 days, and the MTT is then added to the culture medium.
(§10) The 5 day period which was selected corresponds to the optimum time for the activity. After culturing for 5 days, the proliferation of the cells is measured by the test described above. The optical density at 570 nm is measured. A blue coloration develops in the wells where the cells are still alive. The intensity of the coloration is proportional to the quantity of live cells.

[3] = test system: tumour cells; test: biochemical and pharmacological studies illustrated above (binding and antiproliferative tests)
Description: The membranes were prepared as follows: 10 MCF-7 cells are homogenized for 10 seconds on a Polytron® in 10 ml of Hepes® buffer pH=7.4 containing: 210 mM D-mannitol, 70 mM sucrose, 1 mM EDTA, 0.3 mM PMSF. The homogenate is centrifuged at 650 xg for 15 minutes and the supernatant is then taken up and centrifuged for 1 at 100,000 xg. The pellet is resuspended in Tris-HCl buffer pH=7.4 at a concentration of 1 mg/ml and stored at-70° C. The total binding is carried out in a 5 ml tube into which the following are introduced:
The non-specific binding is performed by adding 25 μl of 10^-5 M SR 31747 to the above solution (final volume 250 μl) and then incubating for 30 at 25° C. The free and bound fractions are separated by placing 200 μl on a column of 1 ml of Sephadex® LH 20 and the radioactivity is then counted on the first 2 ml obtained by eluting the column with 50 mM Tris buffer ph=7.4.
The 5 day period which was selected corresponds to the optimum time for the activity. After culturing for 5 days, the proliferation of the cells is measured by the test described above. The optical density at 570 nm is measured. […] The intensity of the coloration is proportional to the quantity of live cells.

[4] = test system: human myeloma U266; test: MTT colorimetric proliferation test, 5 days; format: cell-based; conditions: U-266, 120 h, read-out: percentage of cell proliferation relative to the untreated control taken as 100%
Description: as §4, §5, §6, §7, §8, §9, §10

[5] = test system: human myeloma RPMI 8226; test: MTT colorimetric proliferation test, 5 days; format: cell-based; conditions: 120 h, read-out: percentage of cell proliferation relative to the untreated control taken as 100%
Description: as §4, §5, §6, §7, §8, §9, §10

[6] = test system: MCF7 + E2 10-9M; test: proliferation of mammary epithelial cells, IC50 after 6 days, with oestradiol; format: cell-based, human; conditions: for IC50: MCF7 + E2 10^-9M, 0.5% FCS, 6 days of treatment
Description: as §1, §2
The cell lines which were used are as follows:
The hormone-sensitive MCF-7 line originates from a pleural effusion of a breast adenocarcinoma. The antioestrogen-resistant MCF-7LY2 cells were obtained from the MCF-7LCC1 and MCF-7LCC2 lines were developed in nude mice, after inoculation of the MCF-7 cells. The two lines are oestrogen-independent. The MCF-7CC2 cells are also antioestrogen-resistant. The MCF-7AZTD5 line is derived from the MCF-7 line after stable transfection with the H-ras oncogene. The MCF-7AZTD5 cells are antioestrogen-resistant in vitro. All of these lines are maintained on DMEM/F12 (1/1, vol/vol) containing 10% decomplemented foetal calf serum and 16 ng/ml of human insulin. The MCF-7LCC2 line is cultured in the permanent presence of 10^-7 M hydroxytamoxifen. The MDA-MB231 tumoral mammary epithelial cells are oestrogen- and antioestrogen-insensitive. They are cultured in L15 medium supplemented with 10% FCS, 1% essential amino acids and 10 μg/ml of human insulin.
All the lines are maintained at 37° C. in a humid air/CO2 (95%/5%) atmosphere, except for the MDA-MB231 cells which are cultured in the absence of CO2. THe cell lines are checked regularly free of mycoplasms.
as §3

[7] = test system: human lung carcinoma A549; test: MTT colorimetric proliferation test, 5 days; format: cell-based; conditions: 120 h, read-out: percentage of cell proliferation relative to the untreated control taken as 100%
Description: as §4
human lung carcinoma A549
as §5, §6, §7, §8, §9, §10

[8] = test system: MDA-MB231 cells; test: tumours developed in ovariectomized nude mice from MDA-MB231 cells; format: in vivo; conditions: 500 μg SR 31747 + E2 daily intraperitoneally, to day 92
Description: The inoculation and treatment of the animals were carried out as follows:
The animals used are "nude" female athymic mice, which may or may not have been ovariectomized, obtained at 4 weeks old (R. Janvier). Before inoculating the hormone-sensitive mammary cells (MCF-7, MCF-7AZTD5), the animals receive 10 μl pf ethanolic 10 ^-5 oestradiol solution applied percutaneously. The treatment is repeated three times over one week. One million cells suspended in 100 μl of PBS/Ca are inoculated subcutaneously above each of the hips. The following day, the animals receive 200 μl of injection solution (ethanol/Tween 80/physiological saline, 1/1/18, vol/vol) containing the various reactions at the predefined concentrations. The injections are made intraperitoneally and are repeated every day.
FIGS. 1 and 2 indicate the effect of SR 31747 on tumours developed in ovariectomized "nude" mice from MDA-MB231 cells.
Each mouse receives 5×10^6 MDA-MB231 cells above each hip (i.e. 2 points of inoculation per mouse). The animals are then treated daily via the intraperitoneal route and receive 500 μg SR 31747+0.003 μg E2 (20 mice). The control batch receives 0.0003 μg E2 (20 mice). The amount (as a percentage of inoculated tumours) and size of the tumours developed are determined at different times in the course of the treatment. At the end of the treatment (day 92), the animals are sacrificed and weighed. […]

IC50 ([6]; Homo sapiens, MCF7, 144 h): 400 nM | IC50 [6]: 300 nM
Structure (SMILES): CCN(C/C=C\c1ccc(C2CCCCC2)c(Cl)c1)C1CCCCC1 [SR 31747, cis-N-Cyclohexyl-N-ethyl [3-(3-chloro-4-cyclo-hexylphenyl)allyl]amine]
IC50 ([1]; 0.5% FCS): 400 nM | IC50 ([1]; 10% FCS): > 10000 nM | activity at 10 pM ([2]; HEK293, 120 h, 293, 10 pM): 100% | activity at 0.0001 µM ([2]; HEK293, 120 h, 293, 100 pM): 84% | activity at 0.001 µM ([2]; HEK293, 120 h, 293, 1 nM): 80% | activity at 0.01 µM ([2]; HEK293, 120 h, 293, 10 nM): 43% | activity at 0.1 µM ([2]; HEK293, 120 h, 293, 100 nM): 36% | activity at 1 µM ([2]; HEK293, 120 h, 293, 1 μM): 10% | activity at 10 µM ([2]; HEK293, 120 h, 293, 10 μM): 7% | activity in the biochemical and pharmacological studies [3]: best activity | activity at 10 pM ([4]; U266, 10 pM): 100% | activity at 0.0001 µM ([4]; U266, 100 pM): 100% | activity at 0.001 µM ([4]; U266, 1 nM): 95% | activity at 0.01 µM ([4]; U266, 10 nM): 82% | activity at 0.1 µM ([4]; U266, 100 nM): 67% | activity at 1 µM ([4]; U266, 1 μM): 52% | activity at 10 µM ([4]; U266, 10 μM): 11% | activity at 10 pM ([5]; RPMI 8226, 10 pM): 100% | activity at 0.0001 µM ([5]; RPMI 8226, 100 pM): 91% | activity at 0.001 µM ([5]; RPMI 8226, 1 nM): 79% | activity at 0.01 µM ([5]; RPMI 8226, 10 nM): 66% | activity at 0.1 µM ([5]; RPMI 8226, 100 nM): 54% | activity at 1 µM ([5]; RPMI 8226, 1 μM): 9% | activity at 10 µM ([5]; RPMI 8226, 10 μM): 6% | reversal of the stimulatory action of oestradiol ([6]; hormone-sensitive MCF-7 line): incapable of reversing the stimulatory action of oestradiol | activity at 10 pM ([7]; A549, 10 pM): 100% | activity at 0.0001 µM ([7]; A549, 100 pM): 88% | activity at 0.001 µM ([7]; A549, 1 nM): 56% | activity at 0.01 µM ([7]; A549, 10 nM): 50% | activity at 0.1 µM ([7]; A549, 100 nM): 38% | activity at 1 µM ([7]; A549, 1 μM): 14% | activity at 10 µM ([7]; A549, 10 μM): 10% | size, weight and frequency of tumours developed [8]: tendency to reduce the size, weight and frequency of tumours
